# PubChem BioAssay AID1996
# Details: buffer; pH 7.4; 200.0 µM
row,Compound,solubility kinetic [µg/mL]
1,Cc1cc(SCC(=O)c2ccc(O)c(O)c2)nc2ccccc12,3.5
2,Cc1cccc(/C=C(\C#N)C(=O)Nc2ccccn2)c1,33.3
3,O=C(Cc1ccc([N+](=O)[O-])cc1)NCC1CCCO1 (centres undefined),> 39.6
4,O=C(Nc1cccc(Cl)c1)Nc1cccc(C(=O)O)c1,> 43.6
5,Cc1ccc(CNC(=O)Nc2ccc(Cl)cc2)cc1,< 0.3
6,O=S(=O)(NC1CCCCCCC1)c1ccc(F)cc1,> 42.8
7,COc1ccc(-n2c(C)c(C)c3c(NCCN(C)C)ncnc32)cc1,> 50.9
8,Cn1c(=O)c2c(ncn2CC(O)CNc2ccc(F)cc2)n(C)c1=O (centres undefined),> 52.1
9,Cc1ccc(/C=C/C(=O)O)cc1S(=O)(=O)NCc1cccnc1,46.9
10,COC(=O)c1c(C)[nH]c(C(=O)C(C)OC(=O)c2cnc(C)cn2)c1C (centres undefined),49.2
11,CCC(=NCCc1ccccc1)c1c(O)n(C)c(=O)n(C)c1=O,42.3
12,CCc1ccc(/C=C/c2c([N+](=O)[O-])c(=O)n(C)c(=O)n2C)cc1,7.6
13,C#Cc1ccc(CN2CCN(Cc3ccsc3)C(CCO)C2)cc1 (centres undefined),36.3
14,Nc1cc(N2CCCCCC2)c2nonc2c1[N+](=O)[O-],0.9
15,COc1ccc(-c2cc(C(F)(F)F)nc(-n3ccnc3)n2)cc1,0.6
16,COCCNc1nc2c(c(=O)n(Cc3ccccc3F)c(=O)n2C)n1C,8.5
17,COc1ccc(OC2CCN(S(=O)(=O)c3ccccc3)CC2)cc1,4.8
18,CC(=O)C1C(c2ccc([N+](=O)[O-])cc2)c2c(noc2C)CC1(C)O (centres undefined),> 49.6
19,CCc1sc(C(=O)Nc2nc(C)cs2)cc1C,7.3
20,COc1cccc(Nc2nc(C)nc3c2oc2ccccc23)c1,0.3
21,C=CCn1c(O)c(C=NCCN2CCOCC2)c(=O)[nH]c1=S,> 48.7
22,O=C(CCc1c[nH]c2ccccc12)OCc1cccc(C(F)(F)F)c1,1
23,COc1cccc(N=Cc2c(O)c3ccccc3oc2=O)c1,15.5
24,Cc1cc(C(=O)NN=C2CCCC2)c2ccccc2n1,> 40.1

row,Compound,solubility kinetic [µg/mL]
1,COc1ccc(Nc2nccc(-c3ccc(C#N)cc3)n2)cc1,0.7
2,Cc1cc(NC(=O)CN2CCN(c3cccc(Cl)c3)CC2)no1,45.5
3,CCC(CC)C(=O)Nc1ccncc1,10.9
4,CCOC(=O)C1CCN(Cc2ccc(-c3ccccc3)cc2)CC1,25.6
5,CC(=O)Nc1ccc(S(=O)(=O)Nc2ccn(Cc3ccccc3Cl)n2)cc1,> 60.7
6,CCOc1ccc(/C=C/c2nc(C#N)c(NCCCOC)o2)cc1,3.4
7,O=[N+]([O-])c1ccccc1S(=O)(=O)NCCSCc1ccco1,51
8,CC(=O)c1ccc(S(=O)(=O)NCc2cccnc2)cc1,> 43.6
9,CCS(=O)(=O)NCCc1csc(-c2ccc(OC)c(OC)c2)n1,53.2
10,CC1CN(CC(=O)NCc2ccc(Cl)cc2)CC(C)O1 (centres undefined),> 44.5
11,CC(=O)c1ccc(NC(=O)COC(=O)/C=C/c2cccs2)cc1,7.3
12,Cc1ccc2c(c1)N(Cc1cccc(F)c1)C(=O)C(C)O2 (centres undefined),12.7
13,CCCNC(=O)COCc1cc(-c2ccc3c(c2)OCO3)on1,> 47.7
14,CC(=O)Nc1ccc(S(=O)(=O)N2CCCCC2C(=O)O)cc1 (centres undefined),44.4
15,Cc1nc2ccc(NC(=O)c3ccc4ccccc4n3)cc2s1,< 0.2
16,CCc1ccccc1NC(=O)CCOc1ccccc1,39
17,COc1ccccc1N(CCOc1ccccc1)S(=O)(=O)c1ccccc1,3.9
18,Cc1ccc(S(=O)(=O)n2c(C)nc3cc(C)ccc32)cc1,32
19,CCOC(=O)C1(Cc2ccccc2C)CCCN(C(=O)CCC(=O)OC)C1 (centres undefined),53
20,O=C(/C=C/c1ccc([N+](=O)[O-])cc1)OCc1cnc(-c2ccccc2)o1,6.8
21,O=C(O)CNC(=S)N(Cc1ccccc1)Cc1cccs1,> 48.1
22,C/C(=N\NC(=O)CCCNc1cccc(C)c1)c1ccncc1,> 46.6
23,CCCCC(=O)Nc1cc([N+](=O)[O-])ccc1F,31.8
24,COc1cc(OC)c(C(=O)NC23CC4CC(CC(C4)C2)C3)cc1OC,7.1

row,Compound,solubility kinetic [µg/mL]
1,CC(C)C(O)(C#CCN1CCCCCC1)c1ccccc1.Cl (centres undefined),> 48.3
2,Cc1cc(C)c2nc(NC(=O)c3ccco3)sc2c1,0.4
3,O=C(COC(=O)c1cc(S(=O)(=O)N2CCCCC2)ccc1Cl)NC1CCS(=O)(=O)C1 (centres undefined),> 71.8
4,COc1ccc(N2C(=O)/C(=C/c3cccs3)C(=O)NC2=S)cc1,31.4
5,O=C(NCCc1c[nH]c2ccccc12)c1cc([N+](=O)[O-])cc([N+](=O)[O-])c1,15.2
6,Cc1ccc(C(=O)OCC(=O)Nc2cccc(Cl)c2C)c(O)c1,< 0.7
7,Cc1ccc(C(=O)Nc2cc(C)nn2CCC#N)cc1,> 40.2
8,CN1CCc2c(sc(N)c2C(=O)c2ccc(Cl)cc2)C1,41.5
9,Cc1cc(C)cc(C(=O)Oc2cc(C)[nH]c(=O)c2[N+](=O)[O-])c1,> 45.3
10,O=C(NCCCN1CCCC1=O)c1cc2ccccc2o1,> 42.9
11,CSc1ccccc1C(=O)N(C)C(c1ccccc1)c1ccccc1,10.6
12,COCCCNC(=S)NCCc1ccc(F)cc1,> 40.6
13,CS(=O)(=O)c1ccc(NCC2CCCO2)c([N+](=O)[O-])c1 (centres undefined),> 45
14,Cc1ccc(NC(=O)c2ccc3nc[nH]c3c2)nc1,> 37.8
15,CC(NC(=O)CSc1ncccn1)c1ccc2c(c1)OCO2 (centres undefined),> 47.6
16,O=C(COC(=O)c1ccc[nH]c1=O)Nc1ccc(N2CCCCC2)cc1,> 53.3
17,CCN1CCN(C(=O)NC2CC(=O)N(c3ccc(OC)cc3)C2)CC1 (centres undefined),> 52
18,Cc1ccc2nc(-c3ccncc3)[nH]c2c1,28.1
19,CCOc1ccc(NC(=O)CNC(=O)c2ccc(OC)cc2)cc1,4.1
20,COc1cccc(OC)c1/C=C/C(=O)NC1CCCCC1,5.8
21,CC(=O)Cn1cnc2scc(-c3ccc(C)c(C)c3)c2c1=O,43.7
22,COc1ccc([N+](=O)[O-])cc1C(=O)C(=O)c1ccccc1,< 0.6
23,CCC(C(=O)O)N1C(=O)C2CCCCC2C1=O (centres undefined),> 35.9
24,O=S(=O)(Oc1ccccc1)c1cccnc1,29.4

row,Compound,solubility kinetic [µg/mL]
1,Cc1cccc(OCCC(=O)Nc2ccccc2C(N)=O)c1,44.2
2,O=C(Nc1ccc2c(c1)OCO2)C(=O)c1c[nH]c2ccccc12,0.7
3,O=C(NCCCn1ccnc1)Nc1ccc2c(c1)OCO2,> 43.2
4,COc1cc(NC(=O)COC(C)=O)cc(OC)c1OC,39
5,CSc1ncc(C(=O)Nc2cccc(Cl)c2C)c(C)n1,18.8
6,CCCOc1ccc(/C=N/NC(=O)CN2CCCCC2)cc1,> 45.5
7,O=C(Cc1ccsc1)NCC(=O)Nc1ccccc1Br,> 53
8,CC(C)c1nc2oc3c(NCCO)ncnc3c2c2c1COC(C)(C)C2,48.9
9,CC(=O)N(CCS(=O)(=O)c1ccc(Cl)cc1)Cc1cccs1,39.9
10,COc1cc(S(=O)(=O)NCc2ccc3c(c2)OCO3)ccc1F,14.8
11,O=C(CNCc1ccc(Cl)cc1)N1CCc2ccccc2C1,36.8
12,Cc1cc(NC(=O)C(C)Oc2ccccc2)no1 (centres undefined),> 36.9
13,Cn1ccnc1SCC(=O)c1ccc(C#N)cc1,> 38.6
14,O=C1C2C3C=CC(CC3)C2C(=O)N1c1ccccc1F (centres undefined),19.6
15,O=S(=O)(Nc1cccc2cccnc12)c1ccccc1,3.9
16,Cc1nc(Cl)sc1C(=O)Nc1ccccc1Cl,21.7
17,CC(C)c1ccc(Nc2nc(Cl)nc(NCCO)n2)cc1,2.7
18,CN(CC(=O)Nc1ccc(F)cc1)C(=O)CCc1ccccc1,41.9
19,CCC1(C)Cc2c(C#N)c(N)n(-c3ccccc3)c(=S)c2CO1 (centres undefined),26.4
20,Cc1cn2c(N)c(/C=C3\C=Nc4ccccc43)c(=O)nc2s1,< 0.2
21,Cc1ccc(C(=O)Nc2cccc3[nH]c(C(F)(F)F)nc23)cc1,3.3
22,Cc1cccc(CC(=O)NCCN2CCOCC2)c1,> 39.4
23,CSc1ncccc1C(=O)OC(C)C(=O)Nc1cccc(S(=O)(=O)N2CCOCC2)c1 (centres undefined),8.4
24,Cc1cccc(NC(=O)CNC(=O)c2cccs2)n1,> 41.3

row,Compound,solubility kinetic [µg/mL]
1,CNC(=O)COC(=O)c1ccccc1NC(=O)c1ccco1,> 45.3
2,O=c1c(Cc2ccccc2)c(O)ccn1Cc1ccco1,25.9
3,N#Cc1ccc(NC(=S)NC(=O)C2CCCCC2)cc1,1.6
4,S=C(NCCCN1CCOCC1)Nc1cccc(Cl)c1,> 47.1
5,CN(C)c1ccc(C(=O)OCC(=O)N2CCCCCC2)cc1,33.9
6,COc1ccc(/C=C/C(=O)OCC(=O)NC2CCCC(C)C2C)cc1 (centres undefined),6.1
7,O=c1cc(-c2ccccc2O)nc(-c2ccccc2)[nH]1,0.8
8,Cc1ccc(S(=O)(=O)N(C)C)cc1NC(=O)C(C)OC(=O)C1CCCCC1 (centres undefined),> 59.5
9,O=S(=O)(O)c1cccnc1SCc1ccccc1,41
10,COc1ccc(CCNC(=S)NC(=O)c2ccccc2)cc1C,0.8
11,CC(NC(=O)c1ccc(Br)o1)c1ccc(-n2ccnc2)cc1 (centres undefined),> 54
12,CCOC(=O)C1=C(C)NC(=O)NC1/C=C/c1ccccc1OC (centres undefined),2.6
13,CC(=O)Nc1cccc(Oc2nc(C(F)(F)F)nc3ccccc23)c1,14
14,Cc1ccc(NC(=O)CSc2nnc(/N=C/N(C)C)s2)cc1,> 50.3
15,CSc1ccccc1NC(=O)c1ccccc1,28.8
16,O=C(Nc1cc2c3c(c1)CC(=O)N3CCC2)C1CC1,> 38.4
17,CCOC(=O)N1CCC(NC(=O)Cc2ccccc2)CC1,> 43.6
18,CC(Sc1ccc2ccccc2c1)C(=O)NC(N)=O (centres undefined),8.6
19,O=C(Nc1ccccc1C(=O)NCCc1ccc(O)cc1)c1ccco1,24.2
20,O=S(=O)(Cc1ccccc1)N1CCN(c2ncccn2)CC1,2.3
21,COc1ccc(CCC(=O)OCC(=O)NCc2ccccc2)cc1,> 49.1
22,O=c1[nH]sc2ccccc12,21.7
23,CC(=O)Nc1ccc(N2C(=O)C3C4C=CC(CC4)C3C2=O)cc1 (centres undefined),> 46.6
